Measured values taken from patent US9095565B2, “Methods for treating blood disorders” (Phoenicia Biosciences, Inc., priority 2006, dated 2015).

Tests used:
BFU-E = BFU-E cultured from cord blood; type: cell-based, human
Procedure: (§1) Erythroid burst-forming units (BFU-E) (erythroid progenitors) and colony-forming units granulocyte-macrophage (CFU-GM) (myeloid colonies) were cultured in semi-solid or in two-phase suspension media, with or without hematopoietic growth factors at high levels (e.g., erythropoietin at 3 U/ml) or reduced levels (BFU-E cell proliferation was evaluated by enumeration in colonies developing in the presence of reduced amounts of erythropoietin (0.5 U/ml) rather than 3 U (or 3000 mU)/ml, which is standard for these experimental systems), from cord blood or the peripheral blood of several types of humans. Experiments were carried out on samples derived from 1) β-thalassemia patients who expressed variable levels of fetal globin at baseline (and in untreated control cultures) and represent a variety of potential individual responses, 2) from normal umbilical cord blood samples, which express 40-50% fetal globin at baseline (and in untreated control cultures), 3) from CD34+ cells isolated from normal adult peripheral blood, which expressed low levels of fetal globin in untreated control cultures and at baseline; and 4) from peripheral blood of patients with sickle cell disease who were receiving treatment with hydroxyurea. These biological samples provide a range of potential difficulty in stimulating fetal globin expression in human patients.
In a related study, BFU-E cultured from cord blood, was tested with or without compound M, P, R, T, W, Y, Z, AI, F, or 3-(5-chlorothien-3-yl)acrylic acid.

γ globin promoter = assay: β/γ-globin promoter driven reporter gene assay; type: cell-based; details: Table 2
[1] = test system: Erythroid colonies (BFU-E); assay: Experiment 2: erythroid colonies (BFU-E) cultured from patients with beta thalassemia; type: cell-based, human; details: optimal panel of growth factors
Procedure: as §1
Erythroid colonies were cultured from patients with beta thalassemia, either without any test compounds (Control), only an optimal panel of hematopoietic growth factors, or with one of the test compounds M, P, T, 2-methyl-1-benzofuran-4-carboxylic acid, V, W, X, Y, AK, AC, or AI. […] Colony numbers were increased above the control cultures (% BFU-E/Control) by anywhere from 25% to 230%. Each of the listed test compounds was tested in at least 5 different patients' blood and the differences were statistically significant.

myeloid colonies = assay: Experiment 3: myeloid colonies in cord blood cultured without added growth factors; type: cell-based, human; details: no added growth factors
Procedure: as §1
Control colonies were established in cultures with no added growth factors to support myelopoiesis, in Iscove's Modified Dulbecco's Media (IMDM) methylcellulose media with charcoal-absorbed fetal bovine serum, beta mercaptoethanol, BSA.

F-cell = assay: Related study: in vitro F cell production; type: cell-based
Procedure: (§2) In a related study, the relative luciferase reporter gene induction, γ-globin gene induction, and F cell production was tested for several of the candidate compounds. The relative in vitro γ-globin gene reporter stimulation for the tested compounds was as follows: compound P>M>W=R=Y. The relative in vitro γ-globin gene induction for the tested compounds was as follows: P>R=M>Y>W>. The relative in vitro F-cell production was as follows: W>Y>R>M>P. The relative potency for F-cell production was as follows: R>M>Y>P>W.

γ-globin mRNA = γ-globin mRNA by RT-PCR in erythroid colonies cultured from cord blood; type: cell-based, human; details: for Concentration required: increase in fetal globin mRNA, erythroid colonies from cord blood; for No. of Positive responses: positive cultures/cultures tested
Procedure: γ-globin mRNA was analyzed in control and treated erythroid colonies cultured from cord blood, by RT-PCR.

γ-globin gene = assay: Related study: relative in vitro γ-globin gene induction; type: cell-based
Procedure: as §2

[2] = test system: cells expressing fetal globin (F-cells); assay: Experiment 1: proportion of F-cells in hematopoietic colonies by FACScan; type: cell-based, human; details: same low concentrations as for fetal globin mRNA induction
Procedure: as §1
Hematopoietic colonies were enumerated with or without (+/−) the test compounds, and compared to colonies which developed in the presence of hematopoietic growth factors alone from the same subject (untreated control colonies), and proportions of cells expressing fetal globin (F-cells) were analyzed by FACScan analysis.

γ-globin gene reporter = assay: Related study: relative luciferase reporter gene induction; type: cell-based
Procedure: as §2

fetal globin mRNA = assay: Fetal globin induction in phlebotomized anemic baboons; type: in vivo, baboon
Procedure: Juvenile baboons were catheterized with venous and arterial catheters, and were phlebotomized a set amount of blood daily to maintain anemia with a hemoglobin level of 7.0-7.5 g/dl, from a baseline normal hemoglobin level of (12-13 g/dl). Normal saline was infused to replace the amount of blood withdrawn. This degree of phlebotomy exchanges the blood volume every 10-20 days.
Fetal globin mRNA was analyzed at baseline anemia before and following administration of test compounds. Globin chain protein synthesis confirmed the mRNA findings.
Following establishment of the stable level of anemia, a test compound was administered once/day, either intravenously or orally, and blood was withdrawn through the arterial catheter for analysis of globin mRNA or for analysis of the test compound in the plasma by HPLC-MS. Pharmacokinetic profiles were established from the plasma levels and oral bioavailability (comparing area under the curve between IV and oral plasma levels) was determined for the test compounds.
In anemic Baboon 5002, baseline fetal globin mRNA, assayed by RNAse protection, was 26% of non-alpha globin. With treatment with compound Y at 5 mg/kg/dose, fetal globin mRNA increased to 48% of non-alpha globin, an 85% increase over the baseline level. Treatment with compound AK at 50 mg/kg induced a 51% fetal globin mRNA increase, a 96% increase over the baseline level. […] The human equivalent dose is 20% of these doses, or 1 mg/kg, 10 mg/kg, or 8 mg/kg respectively. Thus, these 3 compounds are highly suitable for pharmaceutical compositions at doses that human patients can readily tolerate.

[3] = test system: Erythroid cells cultured from adult blood; assay: Experiment 4: erythroid cells cultured from adult blood CD34+ cells (cell counts, qRT-PCR, HPLC of hemoglobins); type: cell-based, human
Procedure: Erythroid cells cultured from adult blood are low-HbF expressing and are the most difficult to alter with regard to globin expression. This experiment analyzed erythroid cells cultured from adult blood in the presence or absence of representative test compounds.
Erythroid cells were generated by culturing purified CD34+ cells in Flt-3 ligand, stem cell factor (SCF) and IL-3 for seven days followed by growth in EPO for 14 days. For treatment, cells were cultured as above in a T75 flask then split into multiple flasks on day 8 and treatment with the test compounds was begun. Compound P or other test compounds were diluted from stock solutions with the microliter volumes of stock added to each culture flask for final working concentrations. Cells were enumerated every two days by hemacytometer count. RNA was harvested from 10^6 cells every two days using RNeasy Plus Mini Kit (Qiagen) and qRT-PCR performed using IQ SybrGreen Supermix on an Opticon Monitor instrument (MJ Research). […] Separation of hemoglobins was performed by cation exchange HPLC using a 35×4.6 mm; […] PolyCAT A column (Nest Group) as described previously by Cheryl Rognerud and Ching-Nan Ou, and outlined by the column manufacturer.
QPCR primers were designed using known sequences for α-globin, β-globin, γ-globin, β-actin and B3PD. Primers were designed to span at least one […].

[4] = test system: fetal globin gene promoter; assay: Example 8: factor occupancy of globin gene promoters in primary erythroid cells; type: cell-based
From the text: This is a selective effect on the fetal (gamma globin) gene promoter, without generalized widespread epistatic effects or any effects on the beta globin promoter, as other agents tend to cause. The transcription factor EKLF and the remodeling complex Brg1 and Pol II became bound to the promoter in association with gene activation. In contrast, there were no effects on the beta globin gene promoter. These compounds therefore produce highly specific activating effects solely on the globin gene promoter which would be beneficial to induce for therapy of the beta globin gene disorders, and provide a targeted molecular activity.

Erythroid colonies = assay: Experiment 6: erythroid colony growth from sickle cell patients receiving hydroxyurea; type: cell-based, human
Procedure: Erythroid colonies from the peripheral blood of 4 patients with sickle cell disease who were receiving treatment with Hydroxyurea (HU), a chemotherapeutic agent which suppresses marrow growth and reduces red blood cell production, were cultured alone or with added test compounds M, P, 2-methyl-1-benzofuran-4-carboxylic acid, V, W, Y (racemic mixture) or AI. L-arginine was added as a neutral control, and had no effect on numbers of erythroid colonies.
2-methyl-1-benzofuran-4-carboxylic acid and compound V require additional samples for statistical evaluation, but had positive effects in 3/3 different patients' cultures. These findings indicate that the test compounds stimulate erythroid cell production particularly in conditions of anemia and bone marrow suppression.

In the case of `CCOc1ccc(C(=O)O)cc1` [AI], the “numbers of BFU-E colonies compared to controls” value (“numbers … compared to controls” for short) (BFU-E) was “increased numbers of colonies”, the “% γ globin promoter induction (above untreated control)” value (shortened to “% γ globin promoter induction”) (γ globin promoter) was “** (‘**’ indicates a 100%-200% increase)” and the “number of erythroid colonies compared to matched control cultures” value (“number … compared to matched control cultures” below) [1] was “increased the number of colonies”. The “production of myeloid colonies compared to untreated control” value (“production … compared to untreated control” below) (myeloid colonies) was “stimulated production of myeloid colonies”.
For `CCC(Nc1ncnc2ccccc12)C(=O)O` (stereo not drawn) [Compound M], the “numbers … compared to controls” value (BFU-E) was “increased numbers of colonies”, the “relative in vitro F-cell production (rank order)” value (F-cell) was “W>Y>R>M>P” and the “relative potency for F-cell production (rank order)” value (F-cell) was “R>M>Y>P>W”. For the same compound, the “% γ globin promoter induction” value (γ globin promoter) was “** (‘**’ indicates a 100%-200% increase)”, the “Concentration required” value (γ-globin mRNA) was 5 µM and the “No. of Positive responses” value (γ-globin mRNA) was 4/6. For the same compound, the “relative in vitro γ-globin gene induction (rank order)” value (γ-globin gene) was “P>R=M>Y>W”, the “proportion of F-cells above the percentage in untreated controls” value [2] was “significant increases” and the “number … compared to matched control cultures” value [1] was “increased the number of colonies”. The “relative in vitro γ-globin gene reporter stimulation (rank order)” value (γ-globin gene reporter) was “P>M>W=R=Y”, the “production … compared to untreated control” value (myeloid colonies) was “stimulated production of myeloid colonies” and the “increase over the baseline level of fetal globin mRNA” value (fetal globin mRNA; Baboon 5002, 40 mg/kg) was 257%. The “fetal globin mRNA (% of non-alpha globin)” value (fetal globin mRNA; Baboon 5002, 40 mg/kg, baseline 26%) was 67%.
With `O=C(O)c1cccc(-c2cc3ccccc3oc2=O)c1` [Compound P] the “numbers … compared to controls” value (BFU-E) was “increased numbers of colonies”, the “relative in vitro F-cell production (rank order)” value (F-cell) was “W>Y>R>M>P” and the “relative potency for F-cell production (rank order)” value (F-cell) was “R>M>Y>P>W”. The “% γ globin promoter induction” value (γ globin promoter) was “*** (‘***’ indicates an over 200% increase of γ globin promoter induction over untreated controls)”, the “Cell counts vs cells cultured with erythropoietin alone” value ([3]; 20 microM) was “increased” and the “increase in expression of fetal globin (Hemoglobin F protein) vs untreated control” value ([3]; 100 micromolar, one cycle of erythroid differentiation) was 19 fold. For the same compound, the “production/expression of alpha globin” value ([3]; different doses) was “no effect”, the “production of beta globin” value ([3]; same doses as increases in fetal globin mRNA) was “reciprocal decrease” and the “Concentration required” value (γ-globin mRNA) was 20 µM. The “No. of Positive responses” value (γ-globin mRNA) was 6/6, the “relative in vitro γ-globin gene induction (rank order)” value (γ-globin gene) was “P>R=M>Y>W” and the “proportion of F-cells above the percentage in untreated controls” value [2] was “significant increases”. The “EKLF and Brg1 ATPase proteins at the gamma-globin gene promoter” value [4] was “induced recruitment”, the “effects on the beta globin gene promoter” value [4] was “no effects” and the “repressor complex of HDAC3, NCoR at the fetal globin gene promoter” value [4] was “displacement of a repressor complex of HDAC3, NCoR”. For the same compound, the “number … compared to matched control cultures” value [1] was “increased the number of colonies”, the “relative in vitro γ-globin gene reporter stimulation (rank order)” value (γ-globin gene reporter) was “P>M>W=R=Y” and the “induction of fetal globin (% of globin expression)” value (fetal globin mRNA; phlebotomized anemic baboon with no baseline fetal globin) was 7%. The “beta globin expression” value (fetal globin mRNA; same baboon, baseline 100% beta globin) was “concommitant reduction”.
In the case of `NC(=O)NO` [Hydroxyurea], the “effect on numbers of erythroid colonies compared to control” value (Erythroid colonies) was “decreased numbers of erythroid colonies”.
`N=C(N)NCCC[C@H](N)C(=O)O` [L-arginine] was tested, and the “effect on numbers of erythroid colonies compared to control” value (Erythroid colonies) was “no effect”.
In the case of `O=C(O)c1ccc(-c2ccccc2[N+](=O)[O-])o1` [X], the “% γ globin promoter induction” value (γ globin promoter) was “** (‘**’ indicates a 100%-200% increase)”, the “proportion of F-cells above the percentage in untreated controls” value [2] was “significant increases” and the “number … compared to matched control cultures” value [1] was “increased the number of colonies”. For the same compound, the “production … compared to untreated control” value (myeloid colonies) was “stimulated production of myeloid colonies”.
